O=C1CCc2cc(OCCCCc3nnnn3C3CCCCC3)ccc2N1
solubility (mole fraction)
Conditions | in 1,4-dioxane | in 2-butanone | in acetone | in acetonitrile | in ethanol | in ethyl acetate | in isopropanol | in methanol | in n-butanol | in n-propanol
273.15 K | – | 0.00289 | 0.00168 | 0.0003 | 0.000168 | 0.000115 | 8.4e-05 | 0.000258 | 0.000437 | 0.000206
278.15 K | – | 0.00345 | 0.00206 | 0.000506 | 0.000282 | 0.000205 | 0.000155 | 0.00041 | 0.000656 | 0.000334
283.15 K | – | 0.00399 | 0.00244 | 0.000705 | 0.000406 | 0.00031 | 0.000233 | 0.000573 | 0.000907 | 0.000487
288.15 K | 0.00525 | 0.00464 | 0.00287 | 0.000935 | 0.00054 | 0.000428 | 0.000324 | 0.000754 | 0.00119 | 0.000634
293.15 K | 0.0061 | 0.00529 | 0.00332 | 0.00119 | 0.00069 | 0.000556 | 0.000421 | 0.000955 | 0.0015 | 0.000813
298.15 K | 0.00708 | 0.006 | 0.00381 | 0.00151 | 0.000847 | 0.000704 | 0.000543 | 0.00117 | 0.00184 | 0.00098
303.15 K | 0.00819 | 0.00677 | 0.00433 | 0.00187 | 0.00102 | 0.000861 | 0.000683 | 0.00141 | 0.00222 | 0.00116
308.15 K | 0.0095 | 0.00774 | 0.00487 | 0.00226 | 0.00122 | 0.00102 | 0.000833 | 0.00166 | 0.00263 | 0.00136
313.15 K | 0.0112 | 0.00881 | 0.00557 | 0.00273 | 0.00144 | 0.00119 | 0.000981 | 0.00193 | 0.00307 | 0.0016

— BigSolDB 2.1
